≈ marks a conversion by molar mass, not a printed value. Bridge positions count the residues as written; N and C are the ends. Square brackets hold non-standard residues; d marks the D form. Ends that are not written are not given here. Peptide text beside a SMILES is read from it. Orn = NCCC[C@H](N)C(=O)O
Tests used:
K. pneumonia ATCC 10031 = assay type: cell-based, Klebsiella pneumoniae; settings: ATCC 10031, 24 h
Experimental: (§1) Assays were performed by Trideum Biosciences (Frederick, MD, USA). Isolates were thawed from −80 °C storage and sub-cultured on trypticase soy agar plates at 37 °C prior to experimentation. A single colony was aseptically picked from the agar plate and released in 30 mL trypticase soy broth and incubated overnight at 37 °C incubator. Following which the bacterial culture was diluted to approximately 10^6 colony forming units (CFU)/mL using 2X cation adjusted Mueller–Hinton broth and added to the dAMP solutions (0, 2, 4, 8, 16, 32, 64, and 128 μg/mL) which had been formulated in water at 256 μg/mL and then serially diluted in media on 96-well pates. For fungal evaluation, potato dextrose broth and potato dextrose agar plates were used. The treated cultures were then incubated for 24 h at 37 °C and pathogen growth was measured by absorbance at 600 nm. Four replicas were included for each dAMP concentration. Each MIC was assigned to the lowest test agent concentration resulting in at least three out of four wells showing no growth based on an optical density (OD) reading of <0.1.

K. pneumonia 6069 = assay type: cell-based, Klebsiella pneumoniae; settings: 24 h
Experimental: as §1

[1] = test system: Fusarium solani NRRL 28548; assay type: cell-based; settings: NRRL 28548, 24 h
Experimental: as §1

[2] = test system: Mucor circinelloides NRRL 3631; assay type: cell-based; settings: NRRL 3631, 24 h
Experimental: as §1

Candida krusei Y-27803 = assay type: cell-based; settings: Y-27803, 24 h
Experimental: as §1

[3] = test system: Candida parapsilosis Y-1763; assay type: cell-based; settings: Y-1763, 24 h
Experimental: as §1

Candida krusei Y-27825 = assay type: cell-based; settings: Y-27825, 24 h
Experimental: as §1

[4] = test system: Absidia corymbifera NRRL 6251; assay type: cell-based; settings: NRRL 6251, 24 h
Experimental: as §1

[5] = test system: Aspergillus fumigatus 9651; assay type: cell-based; settings: 9651, 24 h
Experimental: as §1

E. cloacae 6053 = assay type: cell-based; settings: 6053, 24 h
Experimental: as §1

S. epidermis ATCC 51625 = assay type: cell-based; settings: ATCC 51625, 24 h
Experimental: as §1

Candida albicans Y-6359 = assay type: cell-based; settings: Y-6359, 24 h
Experimental: as §1

[6] = test system: Aspergillus flavus MYA-1004; assay type: cell-based; settings: 24 h
Experimental: as §1

[7] = test system: Candida parapsilosis Y-1761; assay type: cell-based; settings: Y-1761, 24 h
Experimental: as §1

Candida albicans Y-326 = assay type: cell-based; settings: Y-326, 24 h
Experimental: as §1

[8] = test system: Aspergillus fumigatus 9648; assay type: cell-based; settings: 9648, 24 h
Experimental: as §1

E. cloacae 6054 = assay type: cell-based; settings: 6054, 24 h
Experimental: as §1

[9] = test system: Aspergillus flavus MYA-3651; assay type: cell-based; settings: 24 h
Experimental: as §1

S. aureus B-767 = assay type: cell-based, Staphylococcus aureus; settings: B-767, 24 h
Experimental: as §1

MRSA ATCC 33592 = assay type: cell-based, Staphylococcus aureus; settings: ATCC 33592, 24 h
Experimental: as §1

MRSA 6381 = assay type: cell-based, Staphylococcus aureus; settings: 6381, 24 h
Experimental: as §1

MRSA 6313 = assay type: cell-based, Staphylococcus aureus; settings: 6313, 24 h
Experimental: as §1

S. aureus 6061 = assay type: cell-based, Staphylococcus aureus; settings: 6061, 24 h
Experimental: as §1

P. aeruginosa ATCC 19660 = assay type: cell-based, Pseudomonas aeruginosa; settings: ATCC 19660, 24 h
Experimental: as §1

P. aeruginosa 6186 = assay type: cell-based, Pseudomonas aeruginosa; settings: 6186, 24 h
Experimental: as §1

P. aeruginosa ATCC 27853 = assay type: cell-based, Pseudomonas aeruginosa; settings: ATCC 27853, 24 h
Experimental: as §1

A. baumannii 6838 = assay type: cell-based, Acinetobacter baumannii; settings: 6838, 24 h
Experimental: as §1

A. baumannii 6043 = assay type: cell-based, Acinetobacter baumannii; settings: 6043, 24 h
Experimental: as §1

A. baumannii ATCC 17978 = assay type: cell-based, Acinetobacter baumannii; settings: ATCC 17978, 24 h
Experimental: as §1

[10] = test system: vulvovaginal candidiasis infection; settings: rats with vulvovaginal candidiasis, oral; cited from earlier work
Description: The dAMPs RP504, RP554 and RP557 were thus tested for their ability to treat a rodent vulvovaginal candidiasis infection. […] A daily dose with a 2% concentration lowered the CFU/sample by more than 4 logs compared to the con ...

Compound	MIC against K. pneumonia ATCC 10031 (K. pneumonia ATCC 10031) [µg/mL]	MIC against K. pneumonia 6069 (K. pneumonia 6069) [µg/mL]	MIC against Fusarium solani NRRL 28548 [1] [µg/mL]	MIC against Mucor circinelloides NRRL 3631 [2] [µg/mL]	MIC against Candida krusei Y-27803 (Candida krusei Y-27803) [µg/mL]	MIC against Candida parapsilosis Y-1763 [3] [µg/mL]	MIC against Candida krusei Y-27825 (Candida krusei Y-27825) [µg/mL]	MIC against Absidia corymbifera NRRL 6251 [4] [µg/mL]	MIC against Aspergillus fumigatus 9651 [5] [µg/mL]	MIC against E. cloacae 6053 (E. cloacae 6053) [µg/mL]	MIC against S. epidermis ATCC 51625 (S. epidermis ATCC 51625) [µg/mL]	MIC against Candida albicans Y-6359 (Candida albicans Y-6359) [µg/mL]	MIC against Aspergillus flavus MYA-1004 [6] [µg/mL]	MIC against Candida parapsilosis Y-1761 [7] [µg/mL]	MIC against Candida albicans Y-326 (Candida albicans Y-326) [µg/mL]	MIC against Aspergillus fumigatus 9648 [8] [µg/mL]	MIC against E. cloacae 6054 (E. cloacae 6054) [µg/mL]	MIC against Aspergillus flavus MYA-3651 [9] [µg/mL]	MIC against S. aureus B-767 (S. aureus B-767) [µg/mL]	MIC against MRSA ATCC 33592 (MRSA ATCC 33592) [µg/mL]	other results
CSCC[C@@H]1NC(=O)[C@H](C(C)C)NC(=O)[C@H](C(C)C)NC(=O)[C@H](CC(C)C)NC(=O)[C@H](Cc2c[nH]c3ccccc23)NC(=O)[C@H](C(C)C)NC(=O)[C@@H](NC(=O)[C@H](Cc2c[nH]c3ccccc23)NC(=O)[C@@H](N)CCCNC(=N)N)CSSC[C@@H](C(=O)N[C@@H](CCCCN)C(=O)N[C@@H](CCCCN)C(N)=O)NC1=O [RP513] (H-RWCVWLVVMCKK-NH2; disulfide 3-10)	128 (≈ 82.7 µM)	128 (≈ 82.7 µM)	16 (≈ 10.3 µM)	32 (≈ 20.7 µM)	64 (≈ 41.3 µM)	>128	64 (≈ 41.3 µM)	32 (≈ 20.7 µM)	>128	>128	>128	64 (≈ 41.3 µM)	>128	>128	64 (≈ 41.3 µM)	128 (≈ 82.7 µM)	>128	128 (≈ 82.7 µM)	>128	>128	MIC against MRSA 6381 (MRSA 6381): >128 µg/mL; MIC against MRSA 6313 (MRSA 6313): >128 µg/mL; MIC against S. aureus 6061 (S. aureus 6061): >128 µg/mL; MIC against P. aeruginosa ATCC 19660 (P. aeruginosa ATCC 19660): >128 µg/mL; MIC against P. aeruginosa 6186 (P. aeruginosa 6186): >128 µg/mL; MIC against P. aeruginosa ATCC 27853 (P. aeruginosa ATCC 27853): >128 µg/mL; MIC against A. baumannii 6838 (A. baumannii 6838): 128 µg/mL (≈ 82.7 µM); MIC against A. baumannii 6043 (A. baumannii 6043): 64 µg/mL (≈ 41.3 µM); MIC against A. baumannii ATCC 17978 (A. baumannii ATCC 17978): >128 µg/mL
FKLRAKIKVRLRAKIKL [D4E1, reference compound]	32	16	2	128	64	64	64	2	64	8	4	64	128	64	64	128	4	128	4	8	MIC against MRSA 6381 (MRSA 6381): 8 µg/mL; MIC against MRSA 6313 (MRSA 6313): 8 µg/mL; MIC against S. aureus 6061 (S. aureus 6061): 8 µg/mL; MIC against P. aeruginosa ATCC 19660 (P. aeruginosa ATCC 19660): 32 µg/mL; MIC against P. aeruginosa 6186 (P. aeruginosa 6186): 16 µg/mL; MIC against P. aeruginosa ATCC 27853 (P. aeruginosa ATCC 27853): 16 µg/mL; MIC against A. baumannii 6838 (A. baumannii 6838): 8 µg/mL; MIC against A. baumannii 6043 (A. baumannii 6043): >128 µg/mL; MIC against A. baumannii ATCC 17978 (A. baumannii ATCC 17978): 16 µg/mL
CC[C@H](C)[C@H](NC(=O)[C@H](CCCN)NC(=O)[C@H](C)NC(=O)[C@H](CCCN)NC(=O)[C@H](CC(C)C)NC(=O)[C@H](CCCCN)NC(=O)[C@@H](NC(=O)[C@H](CCCCN)NC(=O)[C@@H](NC(=O)[C@H](CCCN)NC(=O)[C@H](C)NC(=O)[C@H](CCCN)NC(=O)[C@H](CC(C)C)NC(=O)[C@H](CCCN)NC(=O)[C@@H](N)Cc1ccccc1)[C@@H](C)CC)C(C)C)C(=O)N[C@@H](CCCN)C(=O)N[C@@H](CC(C)C)C(N)=O [RP555] (H-F[Orn]L[Orn]A[Orn]IKVKL[Orn]A[Orn]I[Orn]L-NH2)	4 (≈ 2.09 µM)	16 (≈ 8.37 µM)	2 (≈ 1.05 µM)	64 (≈ 33.5 µM)	32 (≈ 16.7 µM)	16 (≈ 8.37 µM)	32 (≈ 16.7 µM)	4 (≈ 2.09 µM)	64 (≈ 33.5 µM)	2 (≈ 1.05 µM)	2 (≈ 1.05 µM)	32 (≈ 16.7 µM)	>128	32 (≈ 16.7 µM)	32 (≈ 16.7 µM)	64 (≈ 33.5 µM)	4 (≈ 2.09 µM)	128 (≈ 66.9 µM)	8 (≈ 4.18 µM)	8 (≈ 4.18 µM)	MIC against MRSA 6381 (MRSA 6381): 16 µg/mL (≈ 8.37 µM); MIC against MRSA 6313 (MRSA 6313): 16 µg/mL (≈ 8.37 µM); MIC against S. aureus 6061 (S. aureus 6061): 16 µg/mL (≈ 8.37 µM); MIC against P. aeruginosa ATCC 19660 (P. aeruginosa ATCC 19660): 8 µg/mL (≈ 4.18 µM); MIC against P. aeruginosa 6186 (P. aeruginosa 6186): 4 µg/mL (≈ 2.09 µM); MIC against P. aeruginosa ATCC 27853 (P. aeruginosa ATCC 27853): 4 µg/mL (≈ 2.09 µM); MIC against A. baumannii 6838 (A. baumannii 6838): 4 µg/mL (≈ 2.09 µM); MIC against A. baumannii 6043 (A. baumannii 6043): 16 µg/mL (≈ 8.37 µM); MIC against A. baumannii ATCC 17978 (A. baumannii ATCC 17978): 4 µg/mL (≈ 2.09 µM)
OC(Cn1cncn1)(Cn1cncn1)c1ccc(F)cc1F [fluconazole, reference compound]																					reduction in tissue candidiasis infection (in words) [10]: non-significant reduction

Reference: paper PMC7559897, “Designed Antimicrobial Peptides Against Trauma-Related Cutaneous Invasive Fungal Wound Infections” (Journal of Fungi, 2020)
